Measurements reported in paper PMC5218480 (PLoS ONE, 2017).

Tested on: MV-4-11 cells
Test: Gene expression microarray analysis (Affymetrix PrimeView) and GSEA
Type: cell-based, human
Parameters: RFU PODN (11730768_x_at) / Fold change /veh PODN (11730768_x_at) / RFU LINC00158 (11744669_a_at) / Fold change /veh LINC00158 (11744669_a_at) / RFU DUSP10 (11751237_a_at) / Fold change /veh DUSP10 (11751237_a_at) / RFU ID3 (11757404_x_at) / Fold change /veh ID3 (11757404_x_at) / RFU PLEKHG5 (11737974_s_at) / Fold change /veh PLEKHG5 (11737974_s_at) / RFU LRRC4B (11730491_at) / Fold change /veh LRRC4B (11730491_at) / RFU GIMAP4 (11747438_a_at) / Fold change /veh GIMAP4 (11747438_a_at) / RFU KRT8 (11758183_x_at) / Fold change /veh KRT8 (11758183_x_at) / RFU CNN1 (11734310_a_at) / Fold change /veh CNN1 (11734310_a_at) / RFU VPS37D (11726825_at) / Fold change /veh VPS37D (11726825_at) / RFU C10orf10 (11716522_x_at) / Fold change /veh C10orf10 (11716522_x_at) / RFU KIR2DL2 /// KIR2DL4 /// KIR2DL5A /// KIR2DL5B /// KIR2DS1 /// KIR2DS2 /// KIR2DS3 /// KIR2DS4 /// KIR3DL3 /// KIR3DL3 /// KIR3DS1 (11738374_at) / Fold change /veh KIR2DL2 /// KIR2DL4 /// KIR2DL5A /// KIR2DL5B /// KIR2DS1 /// KIR2DS2 /// KIR2DS3 /// KIR2DS4 /// KIR3DL3 /// KIR3DL3 /// KIR3DS1 (11738374_at) / RFU C1QL1 (11718748_at) / Fold change /veh C1QL1 (11718748_at) / RFU TMPRSS4 (11747572_a_at) / Fold change /veh TMPRSS4 (11747572_a_at) / RFU HAMP (11756126_x_at) / Fold change /veh HAMP (11756126_x_at) / RFU RNFT2 (11725882_a_at) / Fold change /veh RNFT2 (11725882_a_at) / RFU NR4A2 (11747474_a_at) / Fold change /veh NR4A2 (11747474_a_at) / RFU ABCC12 (11746883_a_at) / Fold change /veh ABCC12 (11746883_a_at) / RFU TMEM136 (11760407_x_at) / Fold change /veh TMEM136 (11760407_x_at) / RFU CLDN22 /// WWC2 (11732394_at) / Fold change /veh CLDN22 /// WWC2 (11732394_at) / RFU HLA-DPB1 (11760878_x_at) / Fold change /veh HLA-DPB1 (11760878_x_at) / RFU SPINT1 (11716480_a_at) / Fold change /veh SPINT1 (11716480_a_at) / RFU GAP43 (11754022_s_at) / Fold change /veh GAP43 (11754022_s_at) / RFU A4GNT (11735810_at) / Fold change /veh A4GNT (11735810_at) / RFU PRB3 (11715151_x_at) / Fold change /veh PRB3 (11715151_x_at) / RFU TUBB4B (11761932_at) / Fold change /veh TUBB4B (11761932_at) / RFU CAPN14 (11732068_a_at) / Fold change /veh CAPN14 (11732068_a_at) / RFU TMCC2 (11721928_a_at) / Fold change /veh TMCC2 (11721928_a_at) / RFU IRGQ (11745062_a_at) / Fold change /veh IRGQ (11745062_a_at) / RFU FAM174B (11720279_a_at) / Fold change /veh FAM174B (11720279_a_at) / RFU TMPRSS4 (11748680_a_at) / Fold change /veh TMPRSS4 (11748680_a_at) / RFU FAM212B (11763350_a_at) / Fold change /veh FAM212B (11763350_a_at) / RFU PLEKHG5 (11743358_a_at) / Fold change /veh PLEKHG5 (11743358_a_at) / RFU ZSCAN30 (11745921_a_at) / Fold change /veh ZSCAN30 (11745921_a_at) / RFU CMKLR1 (11741424_a_at) / Fold change /veh CMKLR1 (11741424_a_at) / RFU LOC101060620 /// MAPK8IP1 (11723275_at) / Fold change /veh LOC101060620 /// MAPK8IP1 (11723275_at) / RFU SPTSSB (11747773_x_at) / Fold change /veh SPTSSB (11747773_x_at) / RFU PRSS12 (11739890_at) / Fold change /veh PRSS12 (11739890_at) / RFU BIN1 (11741810_x_at) / Fold change /veh BIN1 (11741810_x_at) / RFU WNT11 (11732464_a_at) / Fold change /veh WNT11 (11732464_a_at) / RFU C10orf10 (11716521_a_at) / Fold change /veh C10orf10 (11716521_a_at) / RFU C5orf56 (11738089_at) / Fold change /veh C5orf56 (11738089_at) / RFU CYB561 (11721691_x_at) / Fold change /veh CYB561 (11721691_x_at) / RFU ANKRD19P (11752326_a_at) / Fold change /veh ANKRD19P (11752326_a_at) / RFU OR2T12 /// OR2T33 /// OR2T8 (11738714_s_at) / Fold change /veh OR2T12 /// OR2T33 /// OR2T8 (11738714_s_at) / RFU VCAN (11748164_a_at) / Fold change /veh VCAN (11748164_a_at) / RFU JSRP1 (11732532_at) / Fold change /veh JSRP1 (11732532_at) / RFU KRTAP10-11 (11738290_x_at) / Fold change /veh KRTAP10-11 (11738290_x_at) / RFU MYO3A (11730013_a_at) / Fold change /veh MYO3A (11730013_a_at) / RFU EBF3 (11725865_a_at) / Fold change /veh EBF3 (11725865_a_at) / RFU CAMK2N1 (11719241_x_at) / Fold change /veh CAMK2N1 (11719241_x_at) / RFU C5orf56 (11738088_a_at) / Fold change /veh C5orf56 (11738088_a_at) / RFU OLFML3 (11715873_a_at) / Fold change /veh OLFML3 (11715873_a_at) / RFU LOC100653217 /// NTM (11731650_a_at) / Fold change /veh LOC100653217 /// NTM (11731650_a_at) / RFU MAPK11 (11762145_a_at) / Fold change /veh MAPK11 (11762145_a_at) / RFU FIZ1 (11724087_x_at) / Fold change /veh FIZ1 (11724087_x_at) / RFU OASL (11726364_x_at) / Fold change /veh OASL (11726364_x_at) / RFU SOX15 (11748057_x_at) / Fold change /veh SOX15 (11748057_x_at) / RFU CD79A (11719716_a_at) / Fold change /veh CD79A (11719716_a_at) / RFU HIST1H1D (11736915_at) / Fold change /veh HIST1H1D (11736915_at) / RFU CASKIN2 (11723855_a_at) / Fold change /veh CASKIN2 (11723855_a_at) / RFU LOC730098 (11760151_x_at) / Fold change /veh LOC730098 (11760151_x_at) / RFU OR4N2 (11742367_at) / Fold change /veh OR4N2 (11742367_at) / RFU PRRT2 (11749266_a_at) / Fold change /veh PRRT2 (11749266_a_at) / RFU SNX32 (11753110_a_at) / Fold change /veh SNX32 (11753110_a_at) / RFU CDHR5 (11726645_a_at) / Fold change /veh CDHR5 (11726645_a_at) / RFU RCAN1 (11760418_a_at) / Fold change /veh RCAN1 (11760418_a_at) / RFU FAM167A (11723789_a_at) / Fold change /veh FAM167A (11723789_a_at) / RFU FAM26E (11764081_at) / Fold change /veh FAM26E (11764081_at) / RFU ISYNA1 (11749810_s_at) / Fold change /veh ISYNA1 (11749810_s_at) / RFU ACY1 (11761880_at) / Fold change /veh ACY1 (11761880_at) / RFU 11764098_at / Fold change /veh 11764098_at / RFU SAMD14 (11745864_x_at) / Fold change /veh SAMD14 (11745864_x_at) / RFU NPB (11741838_a_at) / Fold change /veh NPB (11741838_a_at) / RFU TMPRSS6 (11731388_a_at) / Fold change /veh TMPRSS6 (11731388_a_at) / RFU KRTAP10-2 (11738614_at) / Fold change /veh KRTAP10-2 (11738614_at) / RFU ARHGAP8 /// PRR5-ARHGAP8 (11727945_x_at) / Fold change /veh ARHGAP8 /// PRR5-ARHGAP8 (11727945_x_at) / RFU KRTAP5-7 /// NADSYN1 (11734609_at) / Fold change /veh KRTAP5-7 /// NADSYN1 (11734609_at) / RFU RASL12 (11751679_a_at) / Fold change /veh RASL12 (11751679_a_at) / RFU CDKN2B (11736163_a_at) / Fold change /veh CDKN2B (11736163_a_at) / RFU PRF1 (11729649_at) / Fold change /veh PRF1 (11729649_at) / RFU, ZNF638 /// ZNF638-IT1 / Fold change vs veh, ZNF638 /// ZNF638-IT1 / RFU, PANK3 / Fold change vs veh, PANK3 / RFU, SH3YL1 / Fold change vs veh, SH3YL1 / RFU, ZEB2 / Fold change vs veh, ZEB2 / RFU, NRIP1 / Fold change vs veh, NRIP1 / RFU, PTTG1IP / Fold change vs veh, PTTG1IP / RFU, CAPN2 / Fold change vs veh, CAPN2 / RFU, MED14 / Fold change vs veh, MED14 / RFU, SNORA58 / Fold change vs veh, SNORA58 / RFU, C1orf63 / Fold change vs veh, C1orf63 / RFU, LRRFIP1 / Fold change vs veh, LRRFIP1 / RFU, NDUFAF7 / Fold change vs veh, NDUFAF7 / RFU, SLC12A2 / Fold change vs veh, SLC12A2 / RFU, IBTK / Fold change vs veh, IBTK / RFU, ESF1 / Fold change vs veh, ESF1 / Fold change vs veh, TMEM50B / RFU, TAOK1 / Fold change vs veh, TAOK1 / RFU, ACBD3 / Fold change vs veh, ACBD3 / RFU, TMA16 / Fold change vs veh, TMA16 / RFU, RWDD3 / Fold change vs veh, RWDD3 / RFU, BCAT1 / Fold change vs veh, BCAT1 / RFU, EDEM3 / Fold change vs veh, EDEM3 / RFU, TMEM33 / Fold change vs veh, TMEM33 / RFU, WDR75 / Fold change vs veh, WDR75 / RFU, AHCTF1 / Fold change vs veh, AHCTF1 / RFU, TFRC / Fold change vs veh, TFRC / RFU, ZDHHC17 / Fold change vs veh, ZDHHC17 / RFU, NOM1 / Fold change vs veh, NOM1 / RFU, ARL8B / Fold change vs veh, ARL8B / RFU, ZBTB11 / Fold change vs veh, ZBTB11 / RFU, TAMM41 / Fold change vs veh, TAMM41 / RFU, KIAA1704 /// LOC100996395 / Fold change vs veh, KIAA1704 /// LOC100996395 / RFU, ING1 / Fold change vs veh, ING1 / RFU, TRMT61B / Fold change vs veh, TRMT61B / RFU, FUBP3 / Fold change vs veh, FUBP3 / RFU, TP53 / Fold change vs veh, TP53 / RFU, TNKS2 / Fold change vs veh, TNKS2 / RFU, ZFP14 / Fold change vs veh, ZFP14 / RFU, ACTR2 / Fold change vs veh, ACTR2 / RFU, PPP3R1 / Fold change vs veh, PPP3R1 / RFU, PIK3R1 / Fold change vs veh, PIK3R1 / RFU, HNRNPA1 / Fold change vs veh, HNRNPA1 / RFU, RNF170 / Fold change vs veh, RNF170 / RFU, ZNF28 / Fold change vs veh, ZNF28 / RFU, RNGTT / Fold change vs veh, RNGTT / RFU, OGT / Fold change vs veh, OGT / RFU, BRD1 / Fold change vs veh, BRD1 / RFU, MARS / Fold change vs veh, MARS / RFU, ZNF655 / Fold change vs veh, ZNF655 / RFU, FAHD1 / Fold change vs veh, FAHD1 / RFU, BDP1 / Fold change vs veh, BDP1 / RFU, LRRCC1 / Fold change vs veh, LRRCC1 / RFU, ARID1A / Fold change vs veh, ARID1A / RFU, ZNF146 / Fold change vs veh, ZNF146 / RFU, ZNF330 / Fold change vs veh, ZNF330 / RFU, GPN3 / Fold change vs veh, GPN3 / RFU, C9orf123 / Fold change vs veh, C9orf123 / RFU, N4BP2L2 / Fold change vs veh, N4BP2L2 / RFU, ARFIP1 / Fold change vs veh, ARFIP1 / RFU, FAM179B / Fold change vs veh, FAM179B / RFU, BCL10 / Fold change vs veh, BCL10 / RFU, UHRF1BP1L / Fold change vs veh, UHRF1BP1L / RFU, BET1 / Fold change vs veh, BET1 / RFU, CNOT2 / Fold change vs veh, CNOT2 / RFU, ZNF268 / Fold change vs veh, ZNF268 / Fold change vs veh, ZNF507 / RFU, DGCR2 / Fold change vs veh, DGCR2 / RFU, WDSUB1 / Fold change vs veh, WDSUB1 / Fold change vs veh, HSP90B1 /// MIR3652 / RFU, ADSS / Fold change vs veh, ADSS / RFU, GK / Fold change vs veh, GK / RFU, ZNF148 / Fold change vs veh, ZNF148 / RFU, TAF9 / Fold change vs veh, TAF9 / RFU, SLC1A5 / Fold change vs veh, SLC1A5 / RFU, SLMO2 / Fold change vs veh, SLMO2 / RFU, ABCC4 / Fold change vs veh, ABCC4 / RFU, LOC101060439 /// RAP1B / Fold change vs veh, LOC101060439 /// RAP1B / RFU, RFX7 / Fold change vs veh, RFX7 / RFU, GTPBP10 / Fold change vs veh, GTPBP10 / RFU, CNEP1R1 / Fold change vs veh, CNEP1R1 / RFU, BIVM-ERCC5 /// ERCC5 / Fold change vs veh, BIVM-ERCC5 /// ERCC5 / RFU, ILF3 / Fold change vs veh, ILF3 / RFU 11762660_at / Fold change /veh 11762660_at / RFU VCAN (11757783_s_at) / Fold change /veh VCAN (11757783_s_at) / RFU DDX43 (11728927_at) / Fold change /veh DDX43 (11728927_at) / RFU KRT8 (11758188_x_at) / Fold change /veh KRT8 (11758188_x_at) / RFU NKD1 (11759106_at) / Fold change /veh NKD1 (11759106_at) / RFU SRD5A1 (11742802_a_at) / Fold change /veh SRD5A1 (11742802_a_at) / RFU TPSAB1 /// TPSB2 (11721975_s_at) / Fold change /veh TPSAB1 /// TPSB2 (11721975_s_at) / RFU GSTM3 (11746129_a_at) / Fold change /veh GSTM3 (11746129_a_at) / RFU IL23R (11737362_x_at) / Fold change /veh IL23R (11737362_x_at) / RFU TMEM51 (11727254_a_at) / Fold change /veh TMEM51 (11727254_a_at) / RFU PIWIL2 (11732686_x_at) / Fold change /veh PIWIL2 (11732686_x_at) / RFU ORM1 (11744905_x_at) / Fold change /veh ORM1 (11744905_x_at) / RFU CCDC152 (11743942_at) / Fold change /veh CCDC152 (11743942_at) / RFU ECM1 (11717891_a_at) / Fold change /veh ECM1 (11717891_a_at) / RFU IL23R (11748794_a_at) / Fold change /veh IL23R (11748794_a_at) / RFU TNFAIP8L3 (11732012_x_at) / Fold change /veh TNFAIP8L3 (11732012_x_at) / RFU MBOAT4 (11741988_at) / Fold change /veh MBOAT4 (11741988_at) / RFU 11764193_at / Fold change /veh 11764193_at / RFU TMEM53 (11763286_at) / Fold change /veh TMEM53 (11763286_at) / RFU MAGEB2 (11727129_at) / Fold change /veh MAGEB2 (11727129_at) / RFU TMEM200A (11744735_a_at) / Fold change /veh TMEM200A (11744735_a_at) / RFU CCDC152 (11751479_a_at) / Fold change /veh CCDC152 (11751479_a_at) / RFU FAM211A (11726209_a_at) / Fold change /veh FAM211A (11726209_a_at) / RFU RGS16 (11746705_a_at) / Fold change /veh RGS16 (11746705_a_at) / RFU VCAN (11755009_s_at) / Fold change /veh VCAN (11755009_s_at) / RFU RHOB (11743442_s_at) / Fold change /veh RHOB (11743442_s_at) / RFU RGS16 (11720943_a_at) / Fold change /veh RGS16 (11720943_a_at) / RFU RGS16 (11720944_at) / Fold change /veh RGS16 (11720944_at) / RFU, VPS4B / Fold change vs veh, VPS4B / RFU, CREB1 / Fold change vs veh, CREB1 / RFU, DNAJC13 / Fold change vs veh, DNAJC13 / RFU, GNAQ / Fold change vs veh, GNAQ / RFU, CDK5R1 / Fold change vs veh, CDK5R1 / RFU, ZRANB3 / Fold change vs veh, ZRANB3 / RFU, CUL4A / Fold change vs veh, CUL4A / RFU, CCNY / Fold change vs veh, CCNY / RFU, UFL1 / Fold change vs veh, UFL1 / RFU, COG3 / Fold change vs veh, COG3 / RFU, DIAPH2 / Fold change vs veh, DIAPH2 / RFU, SKA2 / Fold change vs veh, SKA2 / RFU, AFF3 / Fold change vs veh, AFF3 / RFU, LMF1 / Fold change vs veh, LMF1 / RFU, IPO11 / Fold change vs veh, IPO11 / RFU, DFFB / Fold change vs veh, DFFB / RFU, FOXP1 / Fold change vs veh, FOXP1 / RFU, CARD8 / Fold change vs veh, CARD8 / RFU, STRN3 / Fold change vs veh, STRN3 / RFU, ADK / Fold change vs veh, ADK / RFU, RASSF2 / Fold change vs veh, RASSF2 / RFU, WIPF1 / Fold change vs veh, WIPF1 / RFU, LARP1B / Fold change vs veh, LARP1B / RFU, RASA1 / Fold change vs veh, RASA1 / RFU, RB1 / Fold change vs veh, RB1 / RFU, PPFIA1 / Fold change vs veh, PPFIA1 / RFU, MAT2A / Fold change vs veh, MAT2A / RFU, CCT5 / Fold change vs veh, CCT5 / RFU, WDR92 / Fold change vs veh, WDR92 / RFU, CUX1 / Fold change vs veh, CUX1 / RFU, TTC7A / Fold change vs veh, TTC7A / RFU, TMEM135 / Fold change vs veh, TMEM135 / RFU, DEPTOR / Fold change vs veh, DEPTOR / RFU, CPM / Fold change vs veh, CPM / RFU, DNAJB6 / Fold change vs veh, DNAJB6 / RFU, CACNA2D3 / Fold change vs veh, CACNA2D3 / RFU, DTX4 / Fold change vs veh, DTX4 / RFU, TFCP2 / Fold change vs veh, TFCP2 / RFU, GMCL1 /// GMCL1P1 / Fold change vs veh, GMCL1 /// GMCL1P1 / RFU, AEBP2 / Fold change vs veh, AEBP2 / RFU, SNHG1 /// SNORD22 /// SNORD25 /// SNORD26 /// SNORD27 /// SNORD28 /// SNORD29 /// SNORD31 / Fold change vs veh, SNHG1 /// SNORD22 /// SNORD25 /// SNORD26 /// SNORD27 /// SNORD28 /// SNORD29 /// SNORD31 / Fold change (Aza/veh), C12orf56 (ProbeSet 11735607_a_at) / Fold change (ACY-1035/veh), C12orf56 (ProbeSet 11735607_a_at) / Fold change (Aza/veh), FGFR1OP (ProbeSet 11751329_s_at) / Fold change (ACY-1035/veh), FGFR1OP (ProbeSet 11751329_s_at) / Fold change (Aza/veh), VPS36 (ProbeSet 11739960_a_at) / Fold change (ACY-1035/veh), VPS36 (ProbeSet 11739960_a_at) / RFU SYPL1 (11715823_x_at) / Fold change /veh SYPL1 (11715823_x_at) / RFU IGFBP7 (11715501_s_at) / Fold change /veh IGFBP7 (11715501_s_at) / RFU REEP3 (11722064_at) / Fold change /veh REEP3 (11722064_at) / RFU IGLL1 (11728026_x_at) / Fold change /veh IGLL1 (11728026_x_at): dose or concentration left out as unconfirmed
Details: MV-4-11 cells, 48 hours

Structure (SMILES): Nc1ccc(-c2cccs2)cc1NC(=O)c1ccc2c(c1)cc(C1CC1)n2CCN1CCOCC1 [ACY-1035]
- Fold change /veh TMPRSS4 (11747572_a_at): 1.09
